Measured values from PMC11266098, “Prenylated flavonoids from Sophora flavescens inhibit mushroom tyrosinase activity and modulate melanogenesis in murine melanoma cells and zebrafish” (Frontiers in Pharmacology, 2024).
Entries after “also recorded” stand apart in the source; their conditions may differ.

How the values were obtained:
zebrafish embryos = assay: Determination of the maximum tolerated concentration (MTC) in zebrafish embryos; type: in vivo; settings: 24 h
Method: Zebrafish embryos that were developing normally at 24 h were chosen at random, five zebrafish embryos per well were seeded in 48 well plates, and each group was set up with three duplicates. The embryo culture medium in the 48-well plate was removed except the blank group, and 1 mL of culture medium containing different concentrations of test samples was added to treatment groups for 24 h. The vehicle control group was added to the embryo culture medium containing 0.1% of DMSO.

mushroom tyrosinase = mushroom tyrosinase (Agaricus bisporus, UniProt C7FF04); assay: Tyrosinase inhibition kinetic analysis (Lineweaver-Burk); type: biochemical; settings: Lineweaver-Burk plots, L-tyrosine substrate
Method: The enzyme reaction kinetics of these compounds were measured by constructing Lineweaver-Burk plots of inverse velocities (1/[V]), contrary to the inverse of substrate concentration (1/[S]) ([Yoshino and Murakami, 2009]; [Butt et al., 2019]). Preincubations and measurement times were performed using the same protocol as described above. The substrate tyrosine concentration was kept between 0.5 and 8 mM in all kinetic studies, test sample concentrations were set as follows: glabridin (0–0.625 µM), KR (0–5 µM), SG (0–10 µM), IAI (0–2 µM). The values of the kinetic constants were calculated using Lineweaver-Burk plot analysis, and the maximum velocity (Vmax) and Michaelis constant (Km) were also calculated by the Lineweaver-Burk plots with the various concentrations of substrate.

MITF = assay: Western blotting of MITF in B16F10 cells; type: cell-based, murine; settings: 48 h
Method: (§1) Equal amounts of proteins from the preceding step were loaded and separated by using the 10% SDS-PAGE gels before being electro-transferred onto polyvinylidene fluoride membranes. The membrane was then blocked with 5% skim milk in TBST (Tris-buffered saline containing 0.1% Tween 20) at room temperature for 2 h. The blots were incubated overnight with primary antibodies against TYR, TRP-1, MITF, DCT, and β-actin at 4°C. After washing thrice with TBST (5 min), the membrane was incubated with the secondary antibody for 1 h at room temperature. The protein bands were detected using the ECL detection kit and imaged using a chemiluminescence gel imaging system, and the band intensities were analyzed by the Image J software.

zebrafish larvae [1] = assay: Melanogenesis in zebrafish larvae pretreated with PTU; type: in vivo; settings: 48 h, PTU 200 μM pretreatment
Method: (§2) To assess the effects of these compounds on melanogenesis in vivo, the total melanin content of whole zebrafish extracts was measured according to a previously described method with minor modification ([Karunarathne et al., 2019]; [Ding et al., 2021]). Briefly, zebrafish larvae of 24 h post-fertilized (hpf) were seeded in 24-well plates with ten embryos per well, each group was set up with four replicates and pretreated with 200 μM PTU for 24 h. Then, the culture medium was replaced with different concentrations of test samples and treated for another 48 h. 8-MOP (50 μM) was used as a positive control, blank controls were not treated and were cultured normally. In addition, to further verify the whitening effect of the compounds, ten zebrafish larvae (24 hpf) per well were seeded in a 24-well plate and cultured for another 24 h using fresh culture media, and each group was set up with four duplicates. Then, the culture medium was replaced with different concentrations of test samples, and the zebrafish larvae were incubated for another 48 h. 8-MOP (50 μM) and arbutin (100 mM) were used as positive controls. Spontaneous melanin content was measured from zebrafish larvae at 96 hpf. The fish embryos were fixed upright with sodium carboxymethylcellulose fixative. Five fish embryos from each experiment were randomly selected for photography under a stereomicroscope. The densitometric analysis was performed using Image J software.

[2] = Cell viability assay (MTT); type: cell-based, murine; settings: mouse, B16F10 cells
Method: B16F10 cells were seeded into 96-well plates at the density of 5 × 10^4 cells/mL, and incubated at 37°C for 24 h. Then, the cells were treated with different concentrations of test samples for 48 h. After incubation, 20 μL MTT (5 mg/mL) was added to each well, and incubated for another 4 h at 37°C. The reaction was stopped by adding 150 μL DMSO per well. The optical density at 490 nm was measured using a microplate reader. Cell viability was calculated as the percentage of viable cells relative to the control group.

TRP-1 = assay: Western blotting of TRP-1 in B16F10 cells; type: cell-based, murine; settings: 48 h
Method: as §1

tyrosinase = biological target: tyrosinase; design: method as in Kim et al., 2003; settings: ref Kim et al., 2003; read-out: IC50 (inhibition on tyrosinase activity); cited from earlier work
[3] = biological target: T1, Intracellular tyrosinase in B16F10 cells (Mus musculus, UniProt P11344); assay: Measurement of tyrosinase activity in B16F10 cells (L-DOPA oxidation); type: cell-based, murine; settings: 48 h
T1 construct: endogenous in cells; host or cells: B16F10 murine melanoma cells
T1 sequence (P11344 19-533): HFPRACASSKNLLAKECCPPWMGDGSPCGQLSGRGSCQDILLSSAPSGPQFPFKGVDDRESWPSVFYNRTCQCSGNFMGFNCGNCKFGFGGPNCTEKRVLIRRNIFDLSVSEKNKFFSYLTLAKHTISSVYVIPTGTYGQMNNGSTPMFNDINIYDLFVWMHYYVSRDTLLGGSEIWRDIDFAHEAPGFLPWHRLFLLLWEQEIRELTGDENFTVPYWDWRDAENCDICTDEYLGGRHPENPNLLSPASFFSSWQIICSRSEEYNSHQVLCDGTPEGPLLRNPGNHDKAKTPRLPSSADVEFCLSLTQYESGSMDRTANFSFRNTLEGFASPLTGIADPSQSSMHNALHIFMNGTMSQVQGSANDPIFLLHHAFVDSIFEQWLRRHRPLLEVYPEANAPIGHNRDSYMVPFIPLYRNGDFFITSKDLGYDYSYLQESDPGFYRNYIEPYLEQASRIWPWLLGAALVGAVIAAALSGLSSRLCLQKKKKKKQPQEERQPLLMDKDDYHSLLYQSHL
Method: Intracellular tyrosinase activity was determined by measuring the rate of oxidation of L-DOPA to dopachrome according to a previously described method with a slight modification ([Maack and Pegard, 2016]). The tyrosinase inhibitor glabridin ([Zhang et al., 2023]) and tyrosinase activator 8-MOP ([Yin et al., 2018]) were both utilized as controls to ensure the accuracy of tyrosinase activity assay in living cells. B16F10 cells were cultured in 24-well plates at the density of 5 × 10^4 cells/mL overnight and then treated with different concentrations of test samples for 48 h. After treatments, cells were washed twice with PBS, lysed with PBS containing 1% Triton X-100, and frozen at −80°C for 1 h. The lysates were then clarified by centrifugation for 20 min at 4°C, 12,000 r/min. The protein content in the supernatants was measured using the Pierce BCA protein assay kit. After protein quantification and the adjustment of the protein concentrations, 100 μL of each lysate was mixed with 100 μL of 4 mM L-DOPA in a 96-well plate, and then incubated at 37°C for 1 h, the optical density at 475 nm was measured using a microplate reader. Tyrosinase activity was expressed as a percentage of the control. All experiments were carried out at least three times.

B16F10 cells = assay: Measurement of melanin content in B16F10 cells; type: cell-based, murine; settings: 48 h; for increase of intracellular melanin content: vs untreated cells
Method: Measurement of melanin content was carried out according to a previously described method with a slight modification ([Karunarathne et al., 2019]). B16F10 cells were cultured in 6-well plates at the density of 2 × 10^5 cells/mL overnight before being treated with different concentrations of test samples for 48 h. After the treatments, the medium was discarded and the cells were washed twice with PBS and were collected, then 200 μL of RIPA lysis buffer was added to each well, and left standing in an ice bath for 40 min. The lysates were then clarified by centrifugation for 20 min at 4°C, 12,000 r/min. The protein content in the supernatants was measured using the Pierce BCA protein assay kit. Then the harvested cell pellets were photographed and dissolved in 100 μL of 1 M NaOH (containing 10% DMSO) at 100°C for 1 h. Melanin content was determined by measuring absorption at 405 nm. For the accurate calculation of melanin content, absorbance values were normalized to total protein absorbance values.

DCT = assay: Western blotting of DCT in B16F10 cells; type: cell-based, murine; settings: 48 h
Method: as §1

zebrafish larvae [4] = assay: Zebrafish depigmentation model (without PTU pretreatment); type: in vivo; settings: 48 h, no PTU pretreatment
Method: as §2

Chain of mushroom tyrosinase (C7FF04 1-392): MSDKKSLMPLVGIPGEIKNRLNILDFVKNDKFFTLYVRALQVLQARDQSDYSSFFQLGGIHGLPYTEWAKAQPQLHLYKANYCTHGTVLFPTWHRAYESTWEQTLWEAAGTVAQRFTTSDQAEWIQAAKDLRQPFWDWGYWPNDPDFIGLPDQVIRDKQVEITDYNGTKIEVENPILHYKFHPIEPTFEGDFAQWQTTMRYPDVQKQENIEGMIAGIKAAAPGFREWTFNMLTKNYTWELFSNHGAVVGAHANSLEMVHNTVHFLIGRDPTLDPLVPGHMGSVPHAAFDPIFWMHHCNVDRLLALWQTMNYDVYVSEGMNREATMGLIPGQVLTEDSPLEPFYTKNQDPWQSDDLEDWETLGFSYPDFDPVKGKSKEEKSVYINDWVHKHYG

SMILES: C=C(C)[C@H](CC=C(C)C)Cc1c(O)cc(OC)c2c1O[C@H](c1ccc(O)cc1O)CC2=O [KR, kurarinone]
- toxicity in zebrafish by the MTC assay (zebrafish embryos; 5, 10, and 20 μM): nontoxic
- inhibition type on tyrosinase (mushroom tyrosinase): mixed type
- upregulation of relative expression of MITF protein (MITF; 10 μM): 84.0%
- increase of melanin production vs model (PTU) group (zebrafish larvae [1]; 20 μM): 36.9%
- viability at 48 h ([2]; 0–20 μM): > 80%
- upregulation of relative expression of TRP-1 protein (TRP-1; 10 μM): 79.2%
- IC50 (tyrosinase): 6.2 µM
- increase of tyrosinase activity in B16F10 cells ([3]; 2.5 μM): 25.1%
- increase of tyrosinase activity in B16F10 cells ([3]; 5 μM): 42.1%
- increase of tyrosinase activity in B16F10 cells ([3]; 10 μM): 77.2%
- effect on tyrosinase activity in B16F10 cells (in words) [3]: enhanced intracellular tyrosinase activity
- increase of intracellular melanin content (B16F10 cells; 5 μM): 61.6%
- increase of intracellular melanin content (B16F10 cells; 10 μM): 85.5%
- effect on melanin production in B16F10 cells (in words) (B16F10 cells): stimulated melanin production
- upregulation of relative expression of DCT protein (DCT; 10 μM): 127.8%
- effect on melanin production vs control group (in words) (zebrafish larvae [4]): did not affect melanin production

SMILES: OC[C@H]1O[C@@H](Oc2ccc(O)cc2)[C@H](O)[C@@H](O)[C@@H]1O [arbutin, reference compound]
- reduction of pigmentation vs control group (zebrafish larvae [4]; 100 mM): 51.4%

SMILES: C=C(C)[C@H](CC=C(C)C)Cc1c(O)cc(OC)c(C(=O)/C=C/c2ccc(O)cc2O)c1O [kuraridin, reference compound]
- IC50 (tyrosinase): 0.6 µM

SMILES: COc1c2occc2cc2ccc(=O)oc12 [8-MOP, 8-methoxypsoralen, reference compound]
- expression of MITF (in words) (MITF; positive control): increased
- increase of melanin production vs model (PTU) group (zebrafish larvae [1]; 50 μM): 25.0%
- viability at 48 h ([2]; 0–100 μM): > 80%
- expression of TRP-1 (in words) (TRP-1; positive control): increased
- effect on tyrosinase activity in B16F10 cells (in words) [3]: enhance cellular tyrosinase activity
- effect on melanin production in B16F10 cells (in words) (B16F10 cells): promoted melanin biosynthesis
- effect on melanin production vs control group (in words) (zebrafish larvae [4]): did not affect melanin production

SMILES: CC1(C)C=Cc2c(ccc3c2OC[C@@H](c2ccc(O)cc2O)C3)O1 [Glabridin, glabridin, reference compound]
- viability at 48 h ([2]; 0–2 μM): > 80%
- effect on tyrosinase activity in B16F10 cells (in words) [3]: inhibited tyrosinase activity
- effect on melanin production in B16F10 cells (in words) (B16F10 cells): strong anti-melanogenic effect

SMILES: COc1cc(O)c2c(=O)c(O)c(-c3ccc(O)cc3)oc2c1CC=C(C)C [IAI, isoanhydroicaritin]
- toxicity in zebrafish by the MTC assay (zebrafish embryos; 40, 80, and 160 μM): nontoxic
- inhibition type on tyrosinase (mushroom tyrosinase): mixed type
- viability at 48 h ([2]; 0–5 μM): > 80%
- upregulation of relative expression of TRP-1 protein (TRP-1; 5 μM): 240.0%
- increase of tyrosinase activity in B16F10 cells ([3]; 5 μM): 25.2%
- effect on tyrosinase activity in B16F10 cells (in words) [3]: did not exhibit significant activity
- effect on melanin production in B16F10 cells (in words) (B16F10 cells): did not exhibit significant activity; also recorded: did not exert any significant effects
- upregulation of relative expression of DCT protein (DCT; 5 μM): 83.4%
- reduction of pigmentation vs control group (zebrafish larvae [4]; 80 μM): 33.0%
- reduction of pigmentation vs control group (zebrafish larvae [4]; 160 μM): 34.4%
